Experimental data taken from patent US9725554B2, “Dendritic polyurea for solubilizing active substances of low solubility” (BASF SE, priority 2009, dated 2017).

Assays:
physchem = conditions: pH 7, aqueous buffer, thermodynamic from solid
Method: Then 0.2 g of each active ingredient was weighed into the batch to give a supersaturated solution. […] The mixture was then stirred at room temperature for 72 hours, using a magnetic stirrer. After a rest time of one hour, unsolubilized active ingredient was removed by filtration. The resulting clear or opaque solution was then analyzed for its active ingredient content by means of UV spectroscopy or HPLC.

[1] = Method: Then 100 mg of each active ingredient was weighed into the batch to give a supersaturated solution. The mixture was then stirred at room temperature for 24 hours, using a magnetic stirrer. After a rest time of one hour, unsolubilized active ingredient was removed by centrifuging. The resulting clear or opaque solution was then analyzed for its active ingredient content by means of UV spectroscopy.
The solubility was determined as described in procedure 2.

A solubility at 72 h (physchem) of under 100 µg/mL was found for Clc1ccccc1C(c1ccccc1)(c1ccccc1)n1ccnc1 [Clotrimazole] in this work.
For “polyethylene glycol monomethyl ether [PEG monomethyl ether]”, the “Solubility of Fipronil in the presence of polymer” value [1] was 6 µg/mL.
